Reference: patent publication US9890185B2, “Urea derivatives useful as kinase inhibitors” (Respivert Limited, priority 2013, dated 2018)
Where two headings read alike, the source gives them in different places.

What was measured:
[1] = test system: PBMCs; assay: LPS-induced IL-8 release in PBMC cells (assay b); format: cell-based, human; details: LPS-stimulated PBMCs, read-out: IC50 Values for Inhibition of Cytokine Release, PBMCs IL-8
Method: Peripheral blood mononuclear cells (PBMCs) from healthy subjects are separated from whole blood using a density gradient (Lymphoprep, Axis-Shield Healthcare). The PBMCs are seeded in 96 well plates and treated with compounds at the desired concentration for 2 hours before addition of 1 ng/mL LPS (Escherichia Coli 0111:B4 from Sigma Aldrich) for 24 hours under normal tissue culture conditions (37° C., 5% CO2). The supernatant is harvested for determination of IL-8 and TNFα concentrations by sandwich ELISA (Duo-set, R&D systems) and read on the fluorescence microplate reader (Varioskan® Flash, ThermoFisher Scientific). The concentration at 50% inhibition (IC50) of IL-8 and TNFα production is calculated from the dose response curve.

[2] = target: GSK 3α (Homo sapiens (Human), UniProt P49840); assay: GSK 3α enzyme inhibition (FRET, Z-LYTE, Method 2); format: biochemical; details: read-out: IC50 Values for Enzyme Inhibition, GSK3α
Method: The enzyme inhibitory activities of compounds disclosed herein are determined by FRET using synthetic peptides labelled with both donor and acceptor fluorophores (Z-LYTE, Invitrogen Ltd., Paisley, UK).
The following two assay variants can be used for determination of GSK 3α inhibition.
The inhibitory activities of compounds of the invention against the GSK 3α enzyme isoform (Invitrogen), are evaluated by determining the level of activation/phosphorylation of the target peptide. The GSK3-α protein (500 ng/mL, 2.5 μL) is mixed with the test compound (2.5 μL at either 4 μg/mL, 0.4 μg/mL, 0.04 μg/mL, or 0.004 μg/mL) for 2 hr at RT. The FRET peptide (8 μM, 2.5 μL), which is a phosphorylation target for GSK3α, and ATP (40 μM, 2.5 μL) are then added to the enzyme/compound mixture and the resulting mixture incubated for 1 hr. Development reagent (protease, 5 μL) is added for 1 hr prior to detection in a fluorescence microplate reader (Varioskan® Flash, ThermoFisher Scientific).
In all cases, the site-specific protease cleaves non-phosphorylated peptide only and eliminates the FRET signal. Phosphorylation levels of each reaction are calculated using the ratio of coumarin emission (donor) over fluorescein emission (acceptor), for which high ratios indicate high phosphorylation and low ratios indicate low phosphorylation levels. The percentage inhibition of each reaction is calculated relative to non-inhibited control and the 50% inhibitory concentration (IC50 value) is then calculated from the concentration-response curve.
This method follows the same steps as Method 1 above, but utilises a shorter period of mixing of the test compound (105 minutes instead of 2 hours) with the GSK3-α protein.

Chain of GSK 3α (P49840 whole entry): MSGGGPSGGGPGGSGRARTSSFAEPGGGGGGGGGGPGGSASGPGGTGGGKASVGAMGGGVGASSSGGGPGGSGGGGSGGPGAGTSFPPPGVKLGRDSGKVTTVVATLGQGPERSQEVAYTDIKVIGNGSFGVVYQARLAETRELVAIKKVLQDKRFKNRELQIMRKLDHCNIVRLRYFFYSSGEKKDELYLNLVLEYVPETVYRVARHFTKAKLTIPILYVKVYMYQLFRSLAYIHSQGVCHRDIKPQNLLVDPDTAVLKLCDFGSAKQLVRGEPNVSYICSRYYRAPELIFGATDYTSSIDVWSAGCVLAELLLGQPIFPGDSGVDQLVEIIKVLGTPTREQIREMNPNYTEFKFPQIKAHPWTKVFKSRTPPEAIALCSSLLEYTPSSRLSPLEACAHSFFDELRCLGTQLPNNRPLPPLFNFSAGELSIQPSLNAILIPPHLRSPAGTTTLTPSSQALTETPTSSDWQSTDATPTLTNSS

Structure (SMILES)	IC50 ([1]; Homo sapiens, PBMC)	IC50 [2]	IC50 [1]
COc1c(NC(=O)Nc2ccc(Oc3ccnc(Nc4ccccc4)c3)c3ccccc23)cc(C(C)(C)C)cc1[S+](C)[O-] (single isomer, unassigned) [38(b2), 1-(5-(tert-Butyl)-2-methoxy-3-(methylsulfinyl)phenyl)-3-(4-((2-(phenylamino)pyridin-4-yl)oxy)naphthalen-1-yl)urea]	6 nM	> 11100 nM	–
COc1c(NC(=O)Nc2ccc(Oc3ccnc(Nc4ccc5c(c4)C(=O)NC5)n3)c3ccccc23)cc(C(C)(C)C)cc1P(C)(C)=O [15(ab), 1-(5-(tert-butyl)-3-(dimethylphosphoryl)-2-methoxyphenyl)-3-(4-((2-((3-oxoisoindolin-5-yl)amino)pyrimidin-4-yl)oxy)naphthalen-1-yl)urea]	5.5 nM	97 nM	–
CCP(=O)(CC)c1cc(C(C)(C)C)cc(NC(=O)Nc2ccc(Oc3ccnc(Nc4ccccc4)c3)c3ccccc23)c1OC [15(ac), 1-(5-(tert-butyl)-3-(diethylphosphoryl)-2-methoxyphenyl)-3-(4-((2-(phenylamino)-pyridin-4-yl)oxy)naphthalen-1-yl)urea]	9.1 nM	> 14700 nM	–
COc1c(NC(=O)Nc2ccc(Oc3ccnc(Nc4cncc(N(C)C)n4)c3)c3ccccc23)cc(C(C)(C)C)cc1P(C)(C)=O [15(ae), 1-(5-(tert-butyl)-3-(dimethylphosphoryl)-2-methoxyphenyl)-3-(4-((2-((6-(dimethylamino)pyrazin-2-yl)amino)pyridin-4-yl)oxy)naphthalen-1-yl)urea]	3.9 nM	871 nM	–
COc1c(NC(=O)Nc2ccc(Oc3ccnc(Nc4ccccc4)c3)c3ccccc23)cc(C(C)(C)C)cc1C(=O)NCCN1CCCC1 [15(ag), 5-(tert-butyl)-2-methoxy-3-(3-(4-((2-(phenylamino)pyridin-4-yl)oxy)naphthalen-1-yl)ureido)-N-(2-(pyrrolidin-1-yl)ethyl)benzamide]	9.8 nM	5810 nM	–
COc1c(NC(=O)Nc2ccc(Oc3ccnc(NC4CCN(C)CC4)n3)c3ccccc23)cc(C(C)(C)C)cc1P(C)(C)=O [15(ah), 1-(5-(tert-butyl)-3-(dimethylphosphoryl)-2-methoxyphenyl)-3-(4-((2-((1-methylpiperidin-4-yl)amino)pyrimidin-4-yl)oxy)naphthalen-1-yl)urea]	299 nM	602 nM	–
COc1c(NC(=O)Nc2ccc(Oc3ccnc(N[C@@H]4CCOC4)n3)c3ccccc23)cc(C(C)(C)C)cc1P(C)(C)=O [15(ai), (R)-1-(5-(tert-butyl)-3-(dimethylphosphoryl)-2-methoxyphenyl)-3-(4-((2-((tetrahydrofuran-3-yl)amino)pyrimidin-4-yl)oxy)naphthalen-1-yl)urea]	3.7 nM	127 nM	–
COc1c(NC(=O)Nc2ccc(Oc3ccnc(N[C@H]4CCOC4)n3)c3ccccc23)cc(C(C)(C)C)cc1P(C)(C)=O [15(aj), (S)-1-(5-(tert-butyl)-3-(dimethylphosphoryl)-2-methoxyphenyl)-3-(4-((2-((tetrahydrofuran-3-yl)amino)pyrimidin-4-yl)oxy)naphthalen-1-yl)urea]	1.8 nM	68 nM	–
COc1c(NC(=O)Nc2ccc(Oc3ccnc(NCCN4CCOCC4)n3)c3ccccc23)cc(C(C)(C)C)cc1P(C)(C)=O [15(al), 1-(5-(tert-butyl)-3-(dimethylphosphoryl)-2-methoxyphenyl)-3-(4-((2-((2-morpholinoethyl)amino)pyrimidin-4-yl)oxy)naphthalen-1-yl)urea]	–	339 nM	3.7 nM
COc1c(NC(=O)Nc2ccc(Oc3ccnc(Nc4cc(C)cc(Cl)c4)c3)c3ccccc23)cc(C(C)(C)C)cc1P(C)(C)=O [15(am), 1-(5-(tert-butyl)-3-(dimethylphosphoryl)-2-methoxyphenyl)-3-(4-((2-((3-chloro-5-methylmethylphenyl)amino)pyridin-4-yl)oxy)naphthalen-1-yl)urea]	6.1 nM	–	–
COc1c(NC(=O)Nc2ccc(Oc3ccnc(NCCn4cccn4)n3)c3ccccc23)cc(C(C)(C)C)cc1P(C)(C)=O [15(ao), 1-(4-((2-((2-(1H-pyrazol-1-yl)ethyl)amino)pyrimidin-4-yl)oxy)naphthalen-1-yl)-3-(5-(tert-butyl)-3-(dimethylphosphoryl)-2-methoxyphenyl)urea]	4.1 nM	387 nM	–
Cc1c(NC(=O)Nc2ccc(Oc3ccnc(Nc4ccccc4)c3)c3ccccc23)cc(C(C)(C)C)cc1P(C)(C)=O [15(ap), 1-(5-(tert-butyl)-3-(dimethylphosphoryl)-2-methylphenyl)-3-(4-((2-(phenylamino)pyridin-4-yl)oxy)naphthalen-1-yl)urea]	48.3 nM	> 16900 nM	–
COc1c(NC(=O)Nc2ccc(Oc3ccnc(Nc4cnn(C)n4)c3)c3ccccc23)cc(C(C)(C)C)cc1P(C)(C)=O [15(ar), 1-(5-(tert-butyl)-3-(dimethylphosphoryl)-2-methoxyphenyl)-3-(4-((2-((2-methyl-2H-1,2,3-triazol-4-yl)amino)pyridin-4-yl)oxy)naphthalen-1-yl)urea]	0.8 nM	356 nM	–
COc1cc(Nc2cc(Oc3ccc(NC(=O)Nc4cc(C(C)(C)C)cc(C(=O)NCCN5CCNCC5)c4OC)c4ccccc34)ccn2)cc(OC)c1 [79(h), 5-(tert-Butyl)-3-(3-(4-((2-((3,5-dimethoxyphenyl)amino)pyridin-4-yl)oxy)naphthalen-1-yl)ureido)-2-methoxy-N-(2-(piperazin-1-yl)ethyl)benzamide]	16.4 nM	–	–
COc1cc(Nc2nccc(Oc3ccc(NC(=O)Nc4cc(C(C)(C)C)cc(S(C)(=O)=O)c4OC)c4ccccc34)n2)ccc1C(=O)O [79(i), 4-((4-((4-(3-(5-(tert-Butyl)-2-methoxy-3-(methylsulfonyl)phenyl)ureido)naphthalen-1-yl)oxy)pyrimidin-2-yl)amino)-2-methoxybenzoic acid]	12.2 nM	–	–
COc1cc(Nc2nccc(Oc3ccc(NC(=O)Nc4cc(C(C)(C)C)cc([S+](C)[O-])c4OC)c4ccccc34)n2)ccc1C(=O)O (stereo not drawn) [79(j), 4-((4-((4-(3-(5-(tert-Butyl)-2-methoxy-3-(methylsulfinyl)phenyl)ureido)naphthalen-1-yl)oxy)pyrimidin-2-yl)amino)-2-methoxybenzoic acid]	15.3 nM	–	–
COc1cc(Nc2cc(Oc3ccc(NC(=O)Nc4cc(C(C)(C)C)cc(P(C)(C)=O)c4OC)c4ccccc34)ccn2)cc(C(=O)N(C)CCN2CCN(C)CC2)c1 [79(k), 3-((4-((4-(3-(5-(tert-Butyl)-3-(dimethylphosphoryl)-2-methoxyphenyl)ureido)naphthalen-1-yl)oxy)pyridin-2-yl)amino)-5-methoxy-N-methyl-N-(2-(4-methylpiperazin-1-yl)ethyl)benzamide]	7 nM	–	–
COc1cc(Nc2cc(Oc3ccc(NC(=O)Nc4cc(C(C)(C)C)cc(P(C)(C)=O)c4OC)c4ccccc34)ccn2)cc(C(=O)N(C)CCC2CCN(C)CC2)c1 [79(l), 3-((4-((4-(3-(5-(tert-Butyl)-3-(dimethylphosphoryl)-2-methoxyphenyl)ureido)naphthalen-1-yl)oxy)pyridin-2-yl)amino)-5-methoxy-N-methyl-N-(2-(1-methylpiperidin-4-yl)ethyl)benzamide]	22.5 nM	–	–
COCCOCCOCCNC(=O)c1cc(Nc2nccc(Oc3ccc(NC(=O)Nc4cc(C(C)(C)C)cc(CNC(=O)CN(C)C)c4OC)c4ccccc34)n2)cc(OC)c1 [Example 81, 3-((4-((4-(3-(5-(tert-Butyl)-3-((2-(dimethylamino)acetamido)methyl)-2-methoxyphenyl)ureido)-naphthalen-1-yl)oxy)pyrimidin-2-yl)amino)-5-methoxy-N-(2-(2-(2-methoxyethoxy)ethoxy)-ethyl)benzamide]	0.4 nM	–	–
COCCOCCOCCNC(=O)c1cc(Nc2cc(Oc3ccc(NC(=O)Nc4cc(C(C)(C)C)cc(CN5CCN(C)CC5)c4OC)c4ccccc34)ccn2)cc(OC)c1 [Example 82, 3-((4-((4-(3-(5-(tert-Butyl)-2-methoxy-3-((4-methylpiperazin-1-yl)methyl)phenyl)ureido)-naphthalen-1-yl)oxy)pyridin-2-yl)amino)-5-methoxy-N-(2-(2-(2-methoxyethoxy)ethoxy)ethyl)-benzamide]	1.7 nM	–	–
COc1cc(Nc2nccc(Oc3ccc(NC(=O)Nc4cc(C(C)(C)C)cc([S+](C)[O-])c4OC)c4ccccc34)n2)cc(C(=O)NCCN2CCN(C)CC2)c1 (stereo not drawn) [Example 83, 3-((4-((4-(3-(5-(tert-Butyl)-2-methoxy-3-(methylsulfinyl)phenyl)ureido)naphthalen-1-yl)oxy)pyrimidin-2-yl)amino)-5-methoxy-N-(2-(4-methylpiperazin-1-yl)ethyl)benzamide]	1.5 nM	–	–
